Experimental data: patent US10604554B2, “Double-acylated GLP-1 derivatives” (Novo Nordisk A/S, priority 2012, dated 2020)
Read-outs that look alike come from different tables or passages of the source.

Target: T1, human GLP-1 receptor (Homo sapiens, UniProt P43220)
T1 construct: expressed in transfected cells; host or cells: BHK cells, clone FCW467-12A/KZ10-1 (parent line BHKTS13), further transfected with CRE luciferase
Experiment: GLP-1 receptor binding (SPA, displacement of 125I-GLP-1)
In short: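 Membranes from a stably transfected hamster cell line, 5-10 ug protein/sample, with WGA SPA beads and [125I]-GLP-1(7-36)NH2 at 0.06 nM final. Incubated 120 min at 30 °C with shaking, then counted.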

[1] = Receptor binding affinity IC50 (high HSA), 2.0% HSA (high albumin)
[2] = 0.001% HSA (low albumin), read-out: Receptor binding affinity IC50 (low HSA)

T1 sequence (P43220 24-463): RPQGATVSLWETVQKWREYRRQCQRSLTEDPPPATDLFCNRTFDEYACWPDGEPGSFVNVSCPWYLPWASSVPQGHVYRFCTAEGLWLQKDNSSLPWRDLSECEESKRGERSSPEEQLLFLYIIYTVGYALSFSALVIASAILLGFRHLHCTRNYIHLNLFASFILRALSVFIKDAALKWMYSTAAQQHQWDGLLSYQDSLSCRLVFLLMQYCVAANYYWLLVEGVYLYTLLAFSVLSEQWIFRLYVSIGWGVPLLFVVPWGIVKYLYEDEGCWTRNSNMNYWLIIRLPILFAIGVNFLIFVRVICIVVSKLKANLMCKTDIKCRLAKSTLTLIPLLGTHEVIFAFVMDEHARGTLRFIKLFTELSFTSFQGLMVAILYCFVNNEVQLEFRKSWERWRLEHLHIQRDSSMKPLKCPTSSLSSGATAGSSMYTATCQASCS

`CC[C@H](C)[C@H](NC(=O)[C@H](Cc1ccccc1)NC(=O)[C@H](CCC(=O)O)NC(=O)[C@H](CCCCNC(=O)[C@@H](N)CCCCNC(=O)[C@@H](N)CCCCNC(=O)CC[C@H](NC(=O)CCCCCCCCCOc1ccc(C(=O)O)cc1)C(=O)O)NC(=O)[C@H](C)NC(=O)[C@H](C)NC(=O)[C@H](CCC(N)=O)NC(=O)CNC(=O)[C@H](CCC(=O)O)NC(=O)[C@H](CC(C)C)NC(=O)[C@H](Cc1ccc(O)cc1)NC(=O)[C@H](CO)NC(=O)[C@H](CO)NC(=O)[C@@H](NC(=O)[C@H](CC(=O)O)NC(=O)[C@H](CO)NC(=O)[C@@H](NC(=O)[C@H](Cc1ccccc1)NC(=O)[C@@H](NC(=O)CNC(=O)[C@H](CCC(=O)O)NC(=O)C(C)(C)NC(=O)[C@@H](N)Cc1c[nH]cn1)[C@@H](C)O)[C@@H](C)O)C(C)C)C(=O)N[C@@H](C)C(=O)N[C@@H](Cc1c[nH]c2ccccc12)C(=O)N[C@@H](CC(C)C)C(=O)N[C@H](C(=O)N[C@@H](CCCNC(=N)N)C(=O)NCC(=O)N[C@@H](CCCNC(=N)N)C(=O)N[C@@H](CCCCNC(=O)[C@@H](N)CCCCNC(=O)[C@@H](N)CCCCNC(=O)CC[C@H](NC(=O)CCCCCCCCCOc1ccc(C(=O)O)cc1)C(=O)O)C(=O)O)C(C)C` [Example 1, N^ε26-[(2S)-2-amino-6-[[(2S)-2-amino-6-[[(4S)-4-carboxy-4-[10-(4-carboxyphenoxy)decanoylamino]butanoyl]amino]hexanoyl]amino]hexanoyl], N^ε37-[(2S)-2-amino-6-[[(2S)-2-amino-6-[[(4S)-4-carboxy-4-[10-(4-carboxyphenoxy)decanoylamino]butanoyl]amino]hexanoyl]amino]hexanoyl]-[Aib^8, Arg^34,Lys^37]-GLP-1-(7-37)-peptide] was tested, and the IC50 [1] was 13 nM.

`CC[C@H](C)[C@H](NC(=O)[C@H](Cc1ccccc1)NC(=O)[C@H](CCC(=O)O)NC(=O)[C@H](CCCCNC(=O)[C@@H](N)CCCCNC(=O)[C@@H](N)CCCCNC(=O)CC[C@H](NC(=O)CCCCCCCCCCCCC(=O)O)C(=O)O)NC(=O)[C@H](C)NC(=O)[C@H](C)NC(=O)[C@H](CCC(N)=O)NC(=O)CNC(=O)[C@H](CCC(=O)O)NC(=O)[C@H](CC(C)C)NC(=O)[C@H](Cc1ccc(O)cc1)NC(=O)[C@H](CO)NC(=O)[C@H](CO)NC(=O)[C@@H](NC(=O)[C@H](CC(=O)O)NC(=O)[C@H](CO)NC(=O)[C@@H](NC(=O)[C@H](Cc1ccccc1)NC(=O)[C@@H](NC(=O)CNC(=O)[C@H](CCC(=O)O)NC(=O)C(C)(C)NC(=O)[C@@H](N)Cc1c[nH]cn1)[C@@H](C)O)[C@@H](C)O)C(C)C)C(=O)N[C@@H](C)C(=O)N[C@@H](Cc1c[nH]c2ccccc12)C(=O)N[C@@H](CC(C)C)C(=O)N[C@H](C(=O)N[C@@H](CCCNC(=N)N)C(=O)NCC(=O)N[C@@H](CCCNC(=N)N)C(=O)N[C@@H](CCCCNC(=O)[C@@H](N)CCCCNC(=O)[C@@H](N)CCCCNC(=O)CC[C@H](NC(=O)CCCCCCCCCCCCC(=O)O)C(=O)O)C(=O)O)C(C)C` [Example 2, N^ε26-[(2S)-2-amino-6-[[(2S)-2-amino-6-[[(4S)-4-carboxy-4-(13-carboxytridecanoylamino)butanoyl]amino]hexanoyl]amino]hexanoyl], N^ε37-[(2S)-2-amino-6-[[(2S)-2-amino-6-[[(4S)-4-carboxy-4-(13-carboxytridecanoylamino)butanoyl]amino]hexanoyl]amino]hexanoyl]-[Aib^8,Arg^34,Lys^37]-GLP-1-(7-37)-peptide] was tested, and the IC50 [2] was 0.24 nM and the IC50 (2.0% HSA (high albumin), read-out: Receptor binding affinity IC50 (high HSA)) was 29 nM.

`CC[C@H](C)[C@H](NC(=O)[C@H](Cc1ccccc1)NC(=O)[C@H](CCC(=O)O)NC(=O)[C@H](CCCCNC(=O)[C@@H](N)CCCCNC(=O)COCCOCCNC(=O)COCCOCCNC(=O)CC[C@H](NC(=O)CCCCCCCCCCCCC(=O)O)C(=O)O)NC(=O)[C@H](C)NC(=O)[C@H](C)NC(=O)[C@H](CCC(N)=O)NC(=O)CNC(=O)[C@H](CCC(=O)O)NC(=O)[C@H](CC(C)C)NC(=O)[C@H](Cc1ccc(O)cc1)NC(=O)[C@H](CO)NC(=O)[C@H](CO)NC(=O)[C@@H](NC(=O)[C@H](CC(=O)O)NC(=O)[C@H](CO)NC(=O)[C@@H](NC(=O)[C@H](Cc1ccccc1)NC(=O)[C@@H](NC(=O)CNC(=O)[C@H](CCC(=O)O)NC(=O)C(C)(C)NC(=O)[C@@H](N)Cc1c[nH]cn1)[C@@H](C)O)[C@@H](C)O)C(C)C)C(=O)N[C@@H](C)C(=O)N[C@@H](Cc1c[nH]c2ccccc12)C(=O)N[C@@H](CC(C)C)C(=O)N[C@H](C(=O)N[C@@H](CCCNC(=N)N)C(=O)NCC(=O)N[C@@H](CCCNC(=N)N)C(=O)N[C@@H](CCCCNC(=O)[C@@H](N)CCCCNC(=O)COCCOCCNC(=O)COCCOCCNC(=O)CC[C@H](NC(=O)CCCCCCCCCCCCC(=O)O)C(=O)O)C(=O)O)C(C)C` [Example 19, N^ε26-[(2S)-2-amino-6-[[2-[2-[2-[[2-[2-[2-[[(4S)-4-carboxy-4-(13-carboxytridecanoylamino)butanoyl]amino]ethoxy]ethoxy]acetyl]amino]ethoxy]ethoxy]acetyl]amino]hexanoyl], N^ε37-[(2S)-2-amino-6-[[2-[2-[2-[[2-[2-[2-[[(4S)-4-carboxy-4-(13-carboxytridecanoylamino)butanoyl]amino]ethoxy]ethoxy]acetyl]amino]ethoxy]ethoxy]acetyl]amino]hexanoyl]-[Aib^8,Arg^34,Lys^37]-GLP-1-(7-37)-peptide] was tested, and the IC50 [2] was 0.77 nM and the IC50 (high HSA) (Receptor binding affinity IC50 (high HSA), 2.0% HSA (high albumin), heading: Receptor binding affinity IC50) was 147 nM.

`CC[C@H](C)[C@H](NC(=O)[C@H](Cc1ccccc1)NC(=O)[C@H](CCC(=O)O)NC(=O)[C@H](CCCCNC(=O)[C@@H](N)CCCCNC(=O)COCCOCCNC(=O)COCCOCCNC(=O)CC[C@H](NC(=O)CCCCCCCCCOc1ccc(C(=O)O)cc1)C(=O)O)NC(=O)[C@H](C)NC(=O)[C@H](C)NC(=O)[C@H](CCC(N)=O)NC(=O)CNC(=O)[C@H](CCC(=O)O)NC(=O)[C@H](CC(C)C)NC(=O)[C@H](Cc1ccc(O)cc1)NC(=O)[C@H](CO)NC(=O)[C@H](CO)NC(=O)[C@@H](NC(=O)[C@H](CC(=O)O)NC(=O)[C@H](CO)NC(=O)[C@@H](NC(=O)[C@H](Cc1ccccc1)NC(=O)[C@@H](NC(=O)CNC(=O)[C@H](CCC(=O)O)NC(=O)C(C)(C)NC(=O)[C@@H](N)Cc1c[nH]cn1)[C@@H](C)O)[C@@H](C)O)C(C)C)C(=O)N[C@@H](C)C(=O)N[C@@H](Cc1c[nH]c2ccccc12)C(=O)N[C@@H](CC(C)C)C(=O)N[C@H](C(=O)N[C@@H](CCCNC(=N)N)C(=O)NCC(=O)N[C@@H](CCCNC(=N)N)C(=O)N[C@@H](CCCCNC(=O)[C@@H](N)CCCCNC(=O)COCCOCCNC(=O)COCCOCCNC(=O)CC[C@H](NC(=O)CCCCCCCCCOc1ccc(C(=O)O)cc1)C(=O)O)C(=O)O)C(C)C` [Example 5] was tested, and the IC50 [1] was 64 nM and the IC50 (Receptor binding affinity IC50 (low HSA), 0.001% HSA (low albumin)) was 1.03 nM.
